One block for each compound: values may come before it.
Experiments:
HL-1 cells = assay: Pharmacological stimulation by caffeine in HL-1 cells imaged using NIR-GECO1; type: cell-based, mouse; settings: 10 mM caffeine
Experimental: (§1) Representative time courses of Ca^2+ influx influenced by pharmacological stimulations of caffeine (10 mM). Spontaneous calcium oscillations were also able to be observed before applications of caffeine.
NIR-GECO1 and NIR-GECO2 were then tested for its performance in cardiovascular research. In one aspect of the present invention, a cell culture of stable immortalized cell lines, known as the HL-1 cell line, derived from mouse atrial cardiomyocytes is used as a model.
(§2) With reference to FIG. 8, NIR-GECO1 expressed in HL-1 (A) and iPSC-CMs (B), and NIR-GECO2 expressed in iPSC-CMs (C) were tested for pharmacological stimulation.
To culture the HL-1 cell line, flasks were pre-coated with gelatin/fibronectin at 37° C. overnight. […]
(§3) An inverted microscope (D1, Zeiss) equipped with a 63× objective lens (NA 1.4, Zeiss) and a multiwavelength LED light source (pE-4000, CoolLED) was used. […] The filter set (T685lpxr dichroic mirror, and ET720/60 emission filter) was used to stimulate ChR2 and to acquire fluorescence imaging of NIR-GECO1. […] Fluorescence signals were recorded by a CMOS camera (ORCA-Flash4.0LT, HAMAMATSU) and controlled by a HC Image software.

iPSC-CMs [1] = assay: Pharmacological stimulation by caffeine in iPSC-CMs imaged using NIR-GECO1 or NIR-GECO2; type: cell-based, human; settings: 10 mM caffeine
Experimental: as §1, §2
Human iPSC-derived cardiomyocytes (Human iPSC Cardiomyocytes[…]|ax2505) were purchased from Axol Bioscience. The cells were plated in two wells of a 6-well plate and cultured for eight days in Axol's Cardiomyocyte Maintenance Medium to 80-90% confluency. Cells then were re-plated on Fibronectin/Gelatin (0.5%/0.1%) coated glass bottom dishes for final observation with Tyrode's buffer. […]
as §3

[2] = Ca^2+ titration of purified NIR-GECO variants (EGTA-buffered Ca^2+ solutions); type: binding; settings: Ca^2+ titration of purified protein, 25° C.; read-out: apparent Kd
Text: (§4) NIR-GECO1 is a near infrared indicator and is engineered from a naturally-monomeric infrared fluorescent proteins (mIFP). NIR-GECO1 has absorbance and emission peaks at 678 and 704 nm, respectively, and undergoes a 90% decrease in fluorescence intensity upon binding Ca^2+, serving as an inverse response indicator contrast to K-GECO1, as shown in FIG. 2B.
(§5) To purify NIR-GECO variants for in vitro characterization, the gene encoding variants of interest with a poly-histidine tag on the C terminus, was expressed from the pBAD vector. Bacteria were lysed with a cell disruptor (Constant Systems Ltd) and then centrifuged at 15,000 g for 30 min, and proteins were purified by Ni-NTA affinity chromatography (Agarose Bead Technologies). The buffer was typically exchanged to 10 mM MOPS, 100 mM KCl (pH 7.2) with centrifugal concentrators (GE Healthcare Life Sciences).
Ca^2+ titrations were carried out using EGTA-buffered Ca^2+ solutions (Calcium Calibration Buffer Kit no. 1, Life Technologies). We prepared buffers by mixing a CaEGTA buffer (30 mM MOPS, 100 mM KCl, 10 mM EGTA, 10 mM CaCl2) and an EGTA buffer (30 mM MOPS, 100 mM KCl, 10 mM EGTA) to give free Ca^2+ concentrations ranging from 0 to 39 μM at 25° C. Fluorescence intensities were plotted against Ca^2+ concentrations and fitted by a sigmoidal binding function to determine the Hill coefficient and Kd.

[3] = In vitro fluorescence characterization of purified NIR-GECO1; type: physicochemical; settings: inverse response indicator
Text: as §4
as §5, with “The buffer was typically exchanged to 10 mM MOPS, 100 mM KCl (pH 7.2) with centrifugal concentrators (GE Healthcare Life Sciences).” left out
The extinction coefficients were determined by comparing the absorbance value at 678 nm to the absorbance value at the 391 nm and assuming an extinction coefficient of 39,900 M^− cm^− at 391 nm. […] The concentration of NIR-GECO variants (Ca^2+-free), NIR-GECO variants (Ca^2+-saturated) and mIFP was adjusted to have absorbance of 0.2-0.6 at 650 nm. A series of dilutions, with absorbance ranging from 0.01 to 0.05, were prepared, and integrated emission intensity versus absorbance was plotted. Quantum yields were determined from the slopes (S) of each line using the equation Φprotein=Φstandard*(Sprotein/Sstandard).

iPSC-CMs [4] = assay: Blue-light photoactivation testing of GECIs expressed in iPSC-CMs; type: cell-based, human; settings: 0.19 W/cm^2 of 470-nm LED light
Text: (§6) (A) A representative time course of spontaneous Ca^2+ oscillations in iPSC-CMs as imaged using K-GECO1. (B) Photoactivation of R-GECO1 and (C) K-GECO1 in iPSC-CMs. Cells with and without spontaneous activities are shown in trace (i) and (ii), respectively. (D) Combined use of K-GECO1 and channelrhodopsin-2 (ChR2) in iPSC-CMs for all-optical control and observation of Ca^2+ transients. Illumination with 470-nm light at a pulse duration of 150 ms for optical control is indicated by arrowheads. (E) Small molecular inhibitors of the voltage-gated L-type calcium channels were applied to iPSC-CMs. iPSC-CMs were plated out at low density and exposed to clinically relevant doses of 100 nM and 1 μM for nifedipine and verapamil, respectively. Traces were obtained with optical stimulation by 470-nm light at a pulse duration of 40 ms at 0.3 Hz.
FIG. 7. Examination of photoactivation effects of NIR-GECO1 and NIR-GECO2 expressed in iPSC-CMs. […]
as §3, with “set (Q565lp” for “set (T685lpxr”, “and HQ620/60” for “and ET720/60”, “of K-GECO1 or R-GECO1.” for “of NIR-GECO1.”, “recorded using” for “recorded by”, “HAMAMATSU)” for “HAMAMATSU) and”, “software. […]” for “software.”

[5] = system: voltage-gated L-type calcium channels; assay: L-type calcium channel inhibitors applied to iPSC-CMs, optically paced Ca^2+ transients imaged using K-GECO1 with ChR2; type: cell-based, human; settings: 1 μM; 470-nm pulses of 40 ms at 0.3 Hz
Text: as §6, with “Hz. […]” for “Hz.”
as §3, with “set (Q565lp” for “set (T685lpxr”, “and HQ620/60” for “and ET720/60”, “of K-GECO1 or R-GECO1.” for “of NIR-GECO1.”, “recorded using” for “recorded by”, “HAMAMATSU)” for “HAMAMATSU) and”

Compound: Cn1c(=O)c2c(ncn2C)n(C)c1=O [caffeine]
fluorescence intensity change (inverse indicator: increase in cytosolic Ca^2+ concentration) (HL-1 cells): significant decreases in fluorescence intensities
fluorescence intensity change (inverse indicator: increase in cytosolic Ca^2+ concentration) (iPSC-CMs [1]): significant decreases in fluorescence intensities

Kd [2]: 215 nM
decrease in fluorescence intensity upon binding Ca^2+ [3]: 90%
Compound: NIR-GECO1: near infrared genetically encoded Ca^2+ indicator engineered from monomeric infrared fluorescent protein mIFP (SEQ ID NO. 6)
photoactivation: changes in fluorescence intensity under illumination (iPSC-CMs [4]; pulse duration 40 ms): no significant changes in fluorescence intensity

Kd [2]: 480 nM
Compound: NIR-GECO2: near infrared Ca^2+ indicator sharing 99% sequence identity with NIR-GECO1 (SEQ ID NO. 7)
photoactivation: changes in fluorescence intensity under illumination (iPSC-CMs [4]; pulse duration 100 ms): no significant changes in fluorescence intensity

Compound: COc1ccc(CCN(C)CCCC(C#N)(c2ccc(OC)c(OC)c2)C(C)C)cc1OC (centres unmarked) [verapamil]
effect on triggered intensity change as imaged using K-GECO1 [5]: suppress the triggered intensity change
